# Experimental data as given in publication PMC6219506, “Onsite GTP fuelling via DYNAMO1 drives division of mitochondria and peroxisomes” (Nature Communications, 2018).
# Experiments:
# DYNAMO1 = biological target: T1, DYNAMO1 (Cyanidioschyzon merolae, UniProt M1USP1); experiment: LC-ESI-MS/MS of nucleotides (nucleoside diphosphate kinase activity); format: biochemical; conditions: 100 nM enzyme, 37 °C, 3 min
# T1 construct: gene CYME_CML110C; open reading frame in pGEX6p-1, GST tag cut off with PreScission protease, E. coli XL-1 Blue; 17 kDa; tetramer
# T1 sequence (M1USP1 1-153): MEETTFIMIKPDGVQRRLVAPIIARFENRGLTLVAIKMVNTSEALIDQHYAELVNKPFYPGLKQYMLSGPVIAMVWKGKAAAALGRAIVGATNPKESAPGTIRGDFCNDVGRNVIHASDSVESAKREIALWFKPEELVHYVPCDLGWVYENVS
# DYNAMO1-Dnm1 string [1] = biological target: T2, DYNAMO1-Dnm1 string (Cyanidioschyzon merolae, UniProt A0A125YLX6); experiment: malachite green phosphate release (GTPase activity); format: biochemical; conditions: 20 mM HEPES, pH 7.5, 30 mM KCl, 1 mM MgCl2, 1 mM DTT; 37 °C; DYNAMO1 at half the amount of Dnm1
# T2 construct: gene CYME_CME019C; with Nucleoside diphosphate kinase-like protein DYNAMO1
# DYNAMO1-Dnm1 string [2] = biological target: T2, DYNAMO1-Dnm1 string; experiment: as above; format: biochemical; conditions: 20 mM HEPES, pH 7.5, 30 mM KCl, 1 mM MgCl2, 1 mM DTT; 37 °C; DYNAMO1 at half the amount of Dnm1; remark: listed apart in the source
# [3] = biological target: recombinant DYNAMO1 (dynamin-based ring motive-force organizer 1), GST removed (Cyanidioschyzon merolae); experiment: SEC; 1 μg purified recombinant DYNAMO1 on a Sepharose 6 10/300 GL column, AKTA prime; standards thyroglobulin, γ-globulin, ovalbumin
# T2 sequence (A0A125YLX6 entry or part of it, one chain of several): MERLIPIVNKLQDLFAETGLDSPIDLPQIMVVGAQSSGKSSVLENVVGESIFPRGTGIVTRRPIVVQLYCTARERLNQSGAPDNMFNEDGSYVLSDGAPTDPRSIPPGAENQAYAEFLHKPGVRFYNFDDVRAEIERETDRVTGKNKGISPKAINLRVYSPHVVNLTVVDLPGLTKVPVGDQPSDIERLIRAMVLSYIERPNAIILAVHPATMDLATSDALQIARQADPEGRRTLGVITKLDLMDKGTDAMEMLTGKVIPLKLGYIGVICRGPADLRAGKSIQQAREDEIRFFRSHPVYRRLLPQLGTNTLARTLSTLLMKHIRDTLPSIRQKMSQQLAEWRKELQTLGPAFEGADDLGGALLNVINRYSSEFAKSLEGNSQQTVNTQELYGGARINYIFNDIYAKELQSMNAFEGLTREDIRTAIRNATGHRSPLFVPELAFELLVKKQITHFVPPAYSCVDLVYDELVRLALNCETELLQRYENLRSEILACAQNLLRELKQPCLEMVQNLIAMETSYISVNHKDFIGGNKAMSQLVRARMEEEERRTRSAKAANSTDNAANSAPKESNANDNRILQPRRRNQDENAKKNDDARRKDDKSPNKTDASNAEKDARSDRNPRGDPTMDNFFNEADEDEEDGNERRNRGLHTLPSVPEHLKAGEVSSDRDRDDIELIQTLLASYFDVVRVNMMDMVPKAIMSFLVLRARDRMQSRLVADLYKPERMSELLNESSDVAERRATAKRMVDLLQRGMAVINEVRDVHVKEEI
molecule,measurement,setting,value
Nc1nc2c(ncn2[C@@H]2O[C@H](COP(=O)(O)OP(=O)(O)O)[C@@H](O)[C@H]2O)c(=O)[nH]1 [GDP],LC-ESI-MS/MS of nucleotides (nucleoside diphosphate kinase activity),DYNAMO1; co-substrate ATP,"generated GTP upon addition of ATP plus GDP (Fig. 1e, f)"
Nc1nc2c(ncn2[C@@H]2O[C@H](COP(=O)(O)OP(=O)(O)OP(=O)(O)O)[C@@H](O)[C@H]2O)c(=O)[nH]1 [GTP],malachite green phosphate release (GTPase activity),DYNAMO1-Dnm1 string [1],the GTPase activity of Dnm1 was higher in DYNAMO1-Dnm1 and DYNAMO1 H116D-Dnm1 strings
same,malachite green phosphate release (GTPase activity),DYNAMO1-Dnm1 string [2],the GTPase activity of Dnm1 was higher in DYNAMO1-Dnm1 and DYNAMO1 H116D-Dnm1 strings
Nc1ncnc2c1ncn2[C@@H]1O[C@H](COP(=O)(O)OP(=O)(O)OP(=O)(O)O)[C@@H](O)[C@H]1O [ATP],LC-ESI-MS/MS of nucleotides (nucleoside diphosphate kinase activity),DYNAMO1; co-substrate GDP,"generated GTP upon addition of ATP plus GDP (Fig. 1e, f)"
"recombinant DYNAMO1 (dynamin-based ring motive-force organizer 1), GST removed (natural protein)",stoichiometry N,[3],4
